Laboratory results reported in the CheMixHub viscosity set.
“And” between values parts separate entries of the source, which are not always exact repeats. Equal values may be shown once.

Key:
[1] = xn = mol fraction of the nth substance listed; conditions: 100 kPa

C1COCOC1
101 kPa
Conditions	viscosity [mPa·s]
298.15 K	1.057
313.15 K	0.8452

C=COC(C)=O
Conditions	viscosity [mPa·s]
303.15 K, 101.33 kPa	0.372

CC(C)C(C)O (centres undefined)
101.33 kPa
Conditions	viscosity [mPa·s]
303.15 K	3.163
313.15 K	2.185
323.15 K	1.573

CC(C)c1ccccc1
viscosity
Conditions	293.15 K	298.15 K	303.15 K	308.15 K	313.15 K	318.15 K	323.15 K
100 kPa	–	0.772 mPa·s	–	0.692 mPa·s	–	0.623 mPa·s	–
101 kPa	0.779 mPa·s	0.7314 mPa·s and 0.731 mPa·s	0.68 mPa·s and 0.6881 mPa·s	0.6366 mPa·s and 0.636 mPa·s and 0.6488 mPa·s	0.608 mPa·s and 0.607 mPa·s and 0.6116 mPa·s	0.5767 mPa·s	0.5447 mPa·s

CCC(CC)CO
Conditions	viscosity
298.15 K, 101.33 kPa	5.819 mPa·s and 5.819 mPa·s

CCCCCCCC(=O)O
Conditions	viscosity [mPa·s]
298.15 K, 101 kPa	5.16

CCCCCCCCCCCCCCCCCCCC
Conditions	viscosity [mPa·s]
313.2 K, 101.3 kPa	4.01

CCCCOC(C)=O
viscosity
Conditions	293.15 K	298.15 K	308.15 K	313.15 K	318.15 K	323.15 K
100 kPa	0.73 mPa·s	0.683 mPa·s	–	0.55 mPa·s	0.51 mPa·s	0.465 mPa·s
101 kPa	0.724 mPa·s and 0.724 mPa·s	–	–	–	0.524 mPa·s and 0.5262 mPa·s	0.507 mPa·s
101.33 kPa	0.735 mPa·s	–	0.592 mPa·s and 0.593 mPa·s and 0.584 mPa·s	0.557 mPa·s and 0.565 mPa·s	0.524 mPa·s	–

CCCN
Conditions	viscosity
293.15 K, 101.3 kPa	0.359 mPa·s
298.15 K, 100 kPa	0.365 mPa·s
298.15 K, 101.3 kPa	0.342 mPa·s
298.15 K, 101.33 kPa	0.356 mPa·s
303.15 K, 101 kPa	0.3468 mPa·s and 0.3479 mPa·s
303.15 K, 101.33 kPa	0.3479 mPa·s and 0.3512 mPa·s
308.15 K, 101 kPa	0.2998 mPa·s
308.15 K, 101.33 kPa	0.328 mPa·s
313.15 K, 101.33 kPa	0.3123 mPa·s
318.15 K, 101.33 kPa	0.291 mPa·s

CCCN(CCC)C(C)=O
Conditions	viscosity [mPa·s]
298.16 K, 101 kPa	2.204

CCCOC(=O)c1ccccc1
viscosity [mPa·s]
Conditions	293.15 K	298.15 K	303.15 K	308.15 K	313.15 K	318.15 K	323.15 K
101 kPa	–	2.357	–	1.905	–	1.574	–
101.33 kPa	2.586	–	2.013	–	1.604	–	1.301

CN1CCCN(C)C1=O
viscosity [mPa·s]
Conditions	293.15 K	298.15 K	303.15 K	308.15 K	313.15 K	318.15 K	323.15 K
100 kPa	3.514	3.11	2.779	2.501	2.266	2.064	1.891
101 kPa	–	2.95	–	–	–	–	–

C[n+]1ccn(CCO)c1.O=C([O-])C(F)(F)C(F)(F)C(F)(F)C(F)(F)F
101 kPa
Conditions	viscosity [mPa·s]
298.15 K	712.8
308.15 K	351.3
318.15 K	190.8

Clc1ccccc1Cl
viscosity
Conditions	298.15 K	303.15 K	308.15 K	313.15 K	318.15 K
100 kPa	–	1.238 mPa·s	1.146 mPa·s	1.054 mPa·s	0.974 mPa·s
101 kPa	1.22 mPa·s	1.129 mPa·s and 1.22 mPa·s	1.058 mPa·s and 1.148 mPa·s	0.9857 mPa·s and 1.054 mPa·s	0.974 mPa·s

N#CCCl
101 kPa
Conditions	viscosity [mPa·s]
293.15 K	0.938
298.15 K	0.863
303.15 K	0.798
313.15 K	0.714
323.15 K	0.616

OCCc1ccccc1
viscosity
Conditions	298.15 K	303.15 K	308.15 K	313.15 K
100 kPa	–	9.05 mPa·s and 9.027 mPa·s	7.653 mPa·s	6.335 mPa·s
101 kPa	10.9 mPa·s	–	–	–

Oc1ccccc1Cl
Conditions	viscosity
293.15 K, 101 kPa	4.21 mPa·s
298 K, 101 kPa	3.376 mPa·s
298 K, 101.3 kPa	3.376 mPa·s
298 K, 101.33 kPa	3.36 mPa·s
298.15 K, 101 kPa	3.671 mPa·s and 3.381 mPa·s
303 K, 101 kPa	2.927 mPa·s
303 K, 101.3 kPa	2.927 mPa·s
303.15 K, 101 kPa	3.08 mPa·s and 2.821 mPa·s and 2.998 mPa·s
308 K, 101 kPa	2.532 mPa·s
308 K, 101.3 kPa	2.532 mPa·s
308.15 K, 101 kPa	2.491 mPa·s and 2.358 mPa·s
313 K, 101 kPa	2.191 mPa·s
313 K, 101.3 kPa	2.191 mPa·s
313.15 K, 101 kPa	2.32 mPa·s and 2.32 mPa·s and 2.259 mPa·s
318 K, 101 kPa	1.947 mPa·s
318 K, 101.3 kPa	1.947 mPa·s
318.15 K, 101 kPa	2.038 mPa·s
323.1 K, 101 kPa	2.015 mPa·s
323.15 K, 101 kPa	1.871 mPa·s

Cn1c(=O)c2c(ncn2C)n(C)c1=O + OCCO
viscosity [mPa·s], [1]
Conditions	293.15 K	298.15 K	303.15 K	308.15 K	313.15 K	318.15 K	323.15 K
x1 = 0.00056	20.79	16.86	13.79	11.41	9.55	8.092	6.902
x1 = 0.00112	20.75	16.8	13.77	11.36	9.528	8.07	6.89
x1 = 0.00166	20.69	16.76	13.72	11.34	9.492	8.048	6.866
x1 = 0.00222	20.64	16.71	13.67	11.3	9.464	8.019	6.833
x1 = 0.00285	20.57	16.66	13.63	11.27	9.426	7.982	6.805
x1 = 0.00335	20.53	16.63	13.59	11.23	9.403	7.965	6.785
